The NIST ThermoML archive (doi:10.1016/j.fluid.2005.12.016)
Numbers after ± are expanded uncertainties.

Test: osmotic coefficient (dimensionless); mn = molality of the nth substance listed, in mol/kg
Details: 298.15 K, 101 kPa, Liquid, isopiestic method

Structure (SMILES): OCCC(O)CO (stereo not given) [1,2,4-butanetriol] + O
- osmotic coefficient (m1 = 0.7526): 0.9857 ± 0.0011
- osmotic coefficient (m1 = 1.34): 0.9912 ± 0.001
- osmotic coefficient (m1 = 1.929): 0.9968 ± 0.001
- osmotic coefficient (m1 = 2.745): 1.0059 ± 0.001
- osmotic coefficient (m1 = 2.8): 1.0065 ± 0.001
- osmotic coefficient (m1 = 3.691): 1.019 ± 0.0012
- osmotic coefficient (m1 = 5.916): 1.062 ± 0.0024

Structure (SMILES): CCC(O)CO (stereo not given) [1,2-butanediol] + O
- osmotic coefficient (m1 = 0.2302): 0.9585 ± 0.0018
- osmotic coefficient (m1 = 0.803): 0.9286 ± 0.0028
- osmotic coefficient (m1 = 0.8128): 0.9282 ± 0.0028
- osmotic coefficient (m1 = 1.046): 0.9205 ± 0.0031
- osmotic coefficient (m1 = 1.056): 0.9202 ± 0.0031
- osmotic coefficient (m1 = 2.093): 0.8967 ± 0.004
- osmotic coefficient (m1 = 3.038): 0.8831 ± 0.0045
- osmotic coefficient (m1 = 3.044): 0.8831 ± 0.0045
- osmotic coefficient (m1 = 4.304): 0.8709 ± 0.005

Structure (SMILES): CC(O)CCO (stereo not given) [1,3-butanediol] + O
- osmotic coefficient (m1 = 0.2289): 0.9766 ± 0.0013
- osmotic coefficient (m1 = 0.7849): 0.9509 ± 0.002
- osmotic coefficient (m1 = 1.051): 0.9416 ± 0.0023
- osmotic coefficient (m1 = 2.968): 0.9042 ± 0.0037
- osmotic coefficient (m1 = 2.969): 0.9042 ± 0.0037
- osmotic coefficient (m1 = 4.186): 0.8953 ± 0.0041
- osmotic coefficient (m1 = 4.197): 0.8953 ± 0.0041

Structure (SMILES): OCCCCO [1,4-butanediol] + O
- osmotic coefficient (m1 = 0.2252): 0.977 ± 0.0013
- osmotic coefficient (m1 = 0.778): 0.9474 ± 0.0021
- osmotic coefficient (m1 = 0.7931): 0.9467 ± 0.0021
- osmotic coefficient (m1 = 1.054): 0.9349 ± 0.0025
- osmotic coefficient (m1 = 2.148): 0.892 ± 0.0042
- osmotic coefficient (m1 = 2.158): 0.8916 ± 0.0042
- osmotic coefficient (m1 = 3.12): 0.8619 ± 0.0053
- osmotic coefficient (m1 = 4.499): 0.8341 ± 0.0064
- osmotic coefficient (m1 = 4.501): 0.8341 ± 0.0064

Structure (SMILES): CC(O)C(C)O (stereo not given) [2,3-butanediol] + O
- osmotic coefficient (m1 = 0.6071): 0.9429 ± 0.0023
- osmotic coefficient (m1 = 0.8087): 0.9359 ± 0.0025
- osmotic coefficient (m1 = 1.995): 0.913 ± 0.0034
- osmotic coefficient (m1 = 2.96): 0.9043 ± 0.0037

Structure (SMILES): OC[C@@H](O)[C@@H](O)CO [meso-1,2,3,4-butanetetrol] + O
- osmotic coefficient (m1 = 0.2173): 1.0019 ± 0.001
- osmotic coefficient (m1 = 0.2196): 1.0019 ± 0.001
- osmotic coefficient (m1 = 0.5657): 1.011 ± 0.0011
- osmotic coefficient (m1 = 0.5662): 1.011 ± 0.0011
- osmotic coefficient (m1 = 0.7365): 1.014 ± 0.0011
- osmotic coefficient (m1 = 0.74): 1.014 ± 0.0011
- osmotic coefficient (m1 = 0.9458): 1.017 ± 0.0012
- osmotic coefficient (m1 = 1.113): 1.019 ± 0.0012
- osmotic coefficient (m1 = 1.114): 1.019 ± 0.0012
